The values that follow come from a melting point compilation (Tetko et al.; mined from patent text by program, amines drawn as free bases though some values may be those of a salt).

The structures appear in SMILES notation.

By melting point is commonly meant the temperature of the solid-liquid transition. Compound `OCC1CCN(c2ccncc2)CC1` came in with a melting point of 183 to 185 °C. With `CCOC(=O)c1[nH]cc2c1NC1=C(C(=O)CCC1)C2c1ccc(Sc2nc3cc(Cl)c(Cl)cc3[nH]2)o1` (stereo unspecified), the melting point came out at 180 °C. With `Oc1ccc2c(c1)Sc1ccccc1CN2`, the melting point lay within 172 to 174 °C. For `O=C(N[C@@H](Cc1ccc(C(F)(F)F)cc1)[C@H](O)c1ccncc1)c1ccc(F)c2ccccc12` the value was 239 to 243 °C; for `CSc1cc(C(F)(F)F)nn1-c1ccc(NC(=O)c2cccnc2F)cc1`, 167 to 168 °C. For `O=C(c1c[nH]c2cc(Cl)ccc12)C(F)(F)F` the value was 256 to 258 °C; for `c1ccc(Cc2ccccc2C2CCN(CCCOc3ccccc3)CC2)cc1`, 139 to 140 °C. For `COc1ccc(N=Nc2ccc(O)c(C(=O)Nc3ccc4[nH]cnc4c3)c2)cc1` the value was 274 °C; for `Ic1cccc(C=Cc2ccccc2)c1`, 96 °C. `CCc1cn(-c2nc(C)nc(NC)n2)c2ccccc12` registered a melting point of 174 to 175 °C. Turning to `[N-]=[N+]=Nc1cc(=O)n(-c2ccccc2)nc1C1=NCCN1`, the melting point fell in the range of 238 to 240 °C. `O=C(C=Cc1cc(F)cc(F)c1)c1cnc2sc3c(n12)CCCCC3` had a melting point of 207 to 209 °C. `CCCCCSc1cc(C(=O)O)cc(S(N)(=O)=O)c1Oc1ccccc1` had a melting point of 180 to 182 °C. For `COC(=O)c1ccc(Cn2c(C(=O)Nc3nc(-c4cc(OC)c(Cl)cc4OC)c(CCC4CCCCC4)s3)cc3cc(C)cc(C)c32)cc1`, the melting point is 199 to 200 °C. `COc1ccsc1C1OC(=O)NC1=O` (stereo unspecified) displayed a melting point of 156 to 158 °C. `CCOC(=O)C=C1c2ccccc2C=C(OC)c2sccc21` returned a melting point of 91 to 93 °C. For `CC(C)Oc1ccc2c(O)c(C(=O)NCCO)nc(Cl)c2c1`, the melting point lay within 102 to 104 °C. `CC(C)CP(=O)(CCC(=O)O)CCC(=O)O` returned a melting point of 186 to 187 °C. Take `Clc1ccc2ccc(/C=C/c3ccc(CN4CCc5cccc(CCc6nnn[nH]6)c54)cc3)nc2c1`: the melting point lay in the range of 83 to 87 °C. With `Cn1c(C(F)(F)F)cc(=O)n(Cc2cc(Cl)cc(Cl)c2Cl)c1=O`, the melting point was 128 to 130 °C. For `CC1Cc2cc(NC(=O)OCc3ccccc3)ccc2N1C(=O)OCc1ccccc1` (stereo unspecified) the value was 107 to 111 °C; for `CC(=O)N1CCc2c(Br)ccc([N+](=O)[O-])c2C1`, 159 to 161 °C. For `NS(=O)(=O)Oc1cccc(Cl)c1` the value was 82 to 83 °C. `Cc1cc(N)c(C)c(C(=O)O)c1`: the melting point was 146 °C. In turn, `Cc1c(C(=O)Nc2ccc(N3CCC(N4CCOCC4)CC3)cc2C#N)cnn1-c1ccc(Cl)cc1` registered a melting point of 212 to 213 °C. As for `CSc1cc2cc(C)ccc2cc1C=O`, the melting point lay within 117 to 118 °C.

Compound `CC1(C)CC=Nc2nc(N)c3ccccc3c21` gave a melting point of 253 to 260 °C. The compound `CC(=O)OCS(=O)(=O)C1=CCC2C3CCC4=CC(=O)C=CC4(C)C3(F)C(O)CC12C` (stereo unspecified) came in with a melting point of 186 to 187 °C.

In turn, `CN(C)c1cc(=S)ss1` showed a melting point of 193 °C. With `Cc1ccccc1-c1nc2ccccc2[nH]1`, the melting point came to 215 °C. `COC(=O)C1=C(C)NC(C2CCCCC2)=C(S(=O)(=O)N(C)C)C1c1cccc([N+](=O)[O-])c1` (stereo unspecified) came in with a melting point of 185 to 188 °C. Take `Oc1ccc(Cc2ncc[nH]2)cc1`: the melting point fell in the range of 188 to 190 °C. On to `CC1Cc2c(N3CCCC(O)C3)c(F)cc3c(=O)c(C(=O)O)cn1c23` (stereo unspecified), for which the melting point lay in the range of 251 to 253 °C. In the case of `Cc1c(NC(=O)c2ccc(-c3ccc(F)cc3)cc2)ccc2cc(CN3CCC(CCCC(=O)N(C)C)CC3)cnc12`, the melting point was 202 to 204 °C. `CC(=O)C(=CNc1cc(Cl)cc(C(=O)O)c1Cl)C(C)=O` displayed a melting point of 244 to 246 °C. In turn, `c1ccc(-c2ccc(-c3nc(COc4ccc(CCCn5ccnc5)cc4)co3)o2)cc1` registered a melting point of 130 to 131 °C.

With `Cc1c(-c2ccccc2Cl)n(-c2ccccc2)c(-c2ccccc2F)cc1=O`, the melting point lay in the range of 182 to 183 °C. Under `CCOc1ccccc1-c1ccc(C(N)=O)c(=O)[nH]1` stands 218 to 220 °C; under `CN(C)c1ccc(/C=C\c2ccc3c(=O)[nH]ncc3c2)cc1`, 312 to 318 °C. The compound `CC1(c2cccc(NS(C)(=O)=O)c2)C2CN(Cc3ccccc3)CC21` (stereo unspecified) came in with a melting point of 117 to 118 °C. Under `CCOC(=O)Nc1nc2c(c3c(CCNS(C)(=O)=O)n(C)nc13)CCCC2` stands 214 to 215 °C; under `C1=Nc2ccccc2OC1`, 126 to 129 °C. In turn, `CCNc1nc(C)c(-c2ccnc(Nc3ccc(N4CCOCC4)c(Cl)c3)n2)s1` displayed a melting point of 273 to 274 °C. For `COc1ccc(/C=C(/C#N)c2cccs2)cc1OC1CCCC1` the value was 100 to 101 °C.

`COc1ccc2c(=O)nc(-c3ccccn3)sc2c1`: the melting point fell in the range of 200 to 202 °C. In turn, `CC(C)Cn1c(CNC(=O)OC(C)(C)C)c(-c2ccc(Cl)cc2)c2cc(/C=C/C(=O)O)ccc2c1=O` registered a melting point of 147 to 149 °C. For the compound `CSc1ccc(CC(=O)NC(NC(=NC#N)Nc2cccc3ncccc23)C(C)(C)C)cc1` (stereo unspecified), the melting point fell in the range of 188 to 189 °C.

`CC(=Cc1ccccc1)c1ncccc1C(N)=O` returned a melting point of 150 to 155 °C. Under `CC(=O)C1CCc2c([nH]c3ccc(Cl)cc23)C1` (stereo unspecified) stands 159 to 161 °C; under `NC(=O)N1CCN(CC(O)COc2ccc(O)cc2)CC1` (stereo unspecified), 198 to 201 °C. Under `CCCCCCC(=O)C[C@H](O)C(=O)O` stands 69 to 70 °C. For `CSCCC(=N)Nc1cn(-c2cccnc2)nc1Cl`, the melting point was 137 °C. With `CC(CO)c1ccc2nc(-c3ccccc3)oc2c1` (stereo unspecified), the melting point was found to be 98 °C.

`O=C(c1c[nH]c(C(=O)CCl)c1)c1ccc2ccccc2c1` showed a melting point of 175 to 177 °C. For `O=C(NCCO)c1cccc(-c2cccc3cc(Cc4cccc(C(F)(F)F)c4)oc23)c1` the value was 140 to 141 °C; for `NS(=O)(=O)c1ccc(NN=C2C(=O)Nc3cc4c(cc32)OCO4)cc1`, above 220 °C; for `CC(C)ON=Cc1cc(-n2c(=O)cc(C(F)(F)F)n(C)c2=O)ccc1Cl`, 105 to 107 °C. Under `O=C1OC(Cc2ccc3c(c2)OCO3)CN1c1ccccc1` (stereo unspecified) stands 110 to 111 °C.

As for `CC(C)=CCCC(C)=CCOc1ccc(C(=O)NCc2ccncc2)cc1`, the melting point is 108 to 110 °C.

Compound `CCCCCCCCC=CCCCCCCCC(N)=O` yielded a melting point of 68 °C. As for `O=C1C[C@H](NC(=O)[C@H]2CCCN2C(=O)c2nc(CCCc3ccc(O)cc3)c[nH]2)[C@@H](OCc2ccccc2)O1`, the melting point was in the range of 86 to 90 °C. Turning to `O=Cc1c(Cl)ccc(Br)c1F`, the melting point lay within 92 to 93 °C.

With `COc1ccc2c(c1)C(=O)OC21CCN(C)CC1`, the melting point was in the range of 123 to 125 °C. `Cc1noc(NS(=O)(=O)c2cc(S(=O)(=O)c3ccccc3)cs2)c1Br`: the melting point lay within 181 to 184 °C. The compound `CCCc1nc(SC)c(C=O)n1Cc1ccc(-c2ccccc2S(=O)(=O)NC(=O)NCc2ccccc2)cc1` gave a melting point of 180 °C. Take `CC1(O)CC(=O)OC(c2ccc(-c3ccccc3)cc2)C1Br` (stereo unspecified): the melting point was 173 to 176 °C. `CC(C)(C#N)c1ccc(C(=O)Nc2cn3cc(Cl)ccc3n2)cc1` gave a melting point of 248 to 250 °C. Take `COc1cc(C(C)C)c2c(c1)S(=O)(=O)N(COc1cc(=O)n3c(n1)CCCC3)C2=O`: the melting point was in the range of 184 to 186 °C. Compound `CC(Cc1c[nH]c2ccccc12)(NC(=O)OC1C2CC3CC(C2)CC1C3)C(=O)c1ccccc1CCCC(=O)O` (stereo unspecified) returned a melting point of 123 to 137 °C. `CSc1ccc(O)nn1` yielded a melting point of 119 °C. On to `CC(C)(C)c1cc(CN2CCN(c3ccc([N+](=O)[O-])cc3)CC2)cc(C(C)(C)C)c1O`, for which the melting point came to 178 °C.

The compound `O=C1CCC(=O)C(c2ccccc2)N1` (stereo unspecified) yielded a melting point of 160 to 164 °C.

For the compound `Cc1n[nH]c2c(C(=O)NC(C)C)c(NC(=O)c3cc(C(F)(F)F)nn3-c3ncccc3Cl)c(Cl)cc12`, the melting point was in the range of 235 to 236 °C. As to `COc1ccccc1-n1c(-c2ccc(C=C(C#N)C#N)s2)ccc1-c1ccc(C(C#N)=C(C#N)C#N)s1`, the melting point is above 300 °C. `COC(=O)C(C)(C)CCOc1ccc(C2=NNC(=O)CC2)cc1Cl` showed a melting point of 109 to 110 °C. On to `Cn1nc(O)c2ccccc2c1=O`, for which the melting point is 243 to 244 °C.

For `CNC(=O)C(NC(=O)C(CC(C)C)C(S)CC(=O)OC)C(C)OCc1ccccc1` (stereo unspecified), the melting point was in the range of 113 to 119 °C. Under `CC(C)(c1ccc(N)c([N+](=O)[O-])c1)c1ccc(N)c([N+](=O)[O-])c1` stands 207 to 210 °C; under `Cc1n[nH]c(=O)cc1-c1ccc(OC2CCN(C(=O)OC(C)(C)C)CC2)cc1`, 184 to 186 °C. `Cc1ccc(Sc2cccc(-c3nc(=O)c4ccccc4s3)n2)cc1` had a melting point of 177 to 178 °C.

For `CC(=O)N(C)C1CCC(O)(c2ccc(Cl)c(Cl)c2)c2ccccc21` (stereo unspecified), the melting point fell in the range of 146 to 148 °C. For `O=[N+]([O-])c1cc(O)c(O)c([N+](=O)[O-])c1` the value was 168 to 170 °C; for `CSc1nn2c(=O)cc(CCl)nc2s1`, 168 to 169 °C. Under `CCCCCCc1oc(C=Cc2ccccc2)nc1CO` stands 44 to 45 °C; under `CC1(C)CN(Cc2ccccc2)c2cc(Cl)cc(C(=O)NC3CN4CCC3CC4)c2O1` (stereo unspecified), 174 to 175 °C; under `c1nc(-c2ccc3c(c2)OCO3)c2cc3c(cc2n1)OCO3`, 180 to 185 °C. The compound `Cc1ccc(S(=O)(=O)NCCCCOc2ccc(-n3ccnc3)cc2)cc1` registered a melting point of 96 to 98 °C.

Take `CCC(CC)c1cccc2[nH]c(=O)n(C)c12`: the melting point was in the range of 130 to 132 °C.

Take `O=C(O)c1ccc2c(c1F)OC(c1ccccc1)(c1ccccc1)O2`: the melting point was in the range of 189 to 191 °C. For the compound `O=C(NN1CCCCC1)c1nn(-c2ccc(Cl)cc2Cl)c2c1SCc1cc(Cl)ccc1-2`, the melting point was 148 °C. As to `CCCN(C(C)C)[C@H]1COc2c(F)ccc(C(N)=O)c2C1`, the melting point was in the range of 139 to 140 °C.
